Patent US4965280A, “Antifungal carbinols” (E. I. Du Pont de Nemours and Company, priority 1989, dated 1990)
Converted amounts (≈) assume the structure as drawn. Like-named read-outs stand apart in the source and are kept apart here.

Tests used:
Puccinia recondita = test: Example G wheat leaf rust; type: in vivo; conditions: 100 PPM, read-out: disease control rating, Ex. G
Phytophthora infestans = test: whole plant or invertebrate; type: in vivo; conditions: Phytophthora infestans, in Solanum lycopersicum, read-out: disease control rating, Ex. H, 100 PPM
Sclerotium rolfsii = test: Example M southern blight; type: in vivo; conditions: Agroathelia rolfsii, 336 h; 5 kg/ha; read-out: disease control rating, Ex. M
Method: […] Seeds and soil were then inoculated with a mixture of sand, cereal and mycelium of the fungus Sclerotium rolfsii, causal agent of sourthern blight, and incubated in a growth chamber at 30° C. for 14 days. Disease ratings were then made.

[1] = system: Candida albicans ATCC 11651; test: In vitro antifungal MIC, microtiter broth dilution; conditions: Candida albicans, ATCC11651, 24 h, read-out: MIC values, C. albicans, 30°, 24 hours
[2] = system: Fusarium oxysporum f. sp. cucumerinum; test: Example L cucumber wilt; type: in vivo; conditions: 336 h, 5 kg/ha, read-out: disease control rating, Ex. L
Method: […] Seeds and soil were then inoculated with a mixture of sand, cereal and mycelium of the fungus Fusarium oxysporum f. sp. cucumerinum, causal agent of cucumber wilt, and incubated in a growth chamber at 30° C. for 14 days. Disease ratings were then made.

Venturia inaequalis = test: Example A apple scab; type: in vivo; conditions: 100 PPM, read-out: disease control rating, Ex. A
Summary of the method: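 Apple seedlings receive a run-off spray of compound suspended at 100 or 20 ppm. The spray liquid is purified water holding 250 ppm TREM 014, a polyhydric alcohol ester surfactant, plus acetone at 6% of final volume as the solvent.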

Pythium aphanadermatum = test: Example J cucumber damping off; type: in vivo; conditions: Pythium, 336 h; 5 kg/ha; read-out: disease control rating, Ex. J
Summary of the method: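 Seeds and soil were inoculated with a mix of sand, cereal and Pythium aphanadermatum mycelium, the fungus responsible for cucumber damping off. They were kept in a growth chamber at 30° C. for 14 days, and disease was then rated to assess control.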

Botrytis cinerea = test: Example C bean grey mold; type: in vivo; conditions: Botrytis cinerea, 24 h, 100 PPM; read-out: disease control rating, Ex. C
Summary of the method: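 Compound is first dissolved in acetone, the acetone making up 6% of the final volume. The solution is then suspended in purified water with 250 ppm of the polyhydric alcohol ester surfactant TREM 014 to give 100 or 20 ppm. Seedlings of broad bean receive this spray until liquid runs off.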

Plasmorpara viticola = test: Example I grape downy mildew; type: in vivo; conditions: read-out: disease control rating, Ex. I
Summary of the method: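 Compounds were dissolved in acetone (6% of final volume) and suspended at 100 or 20 ppm in purified water with 250 ppm TREM 014 surfactant (polyhydric alcohol esters). Grape seedlings were sprayed with this suspension to run-off.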

Pyricularia oryzae = test: whole plant or invertebrate; type: in vivo; conditions: Pyricularia oryzae, 120 h, read-out: disease control rating, Ex. E, 100 PPM
[3] = system: Aspergillus fumigatus ATCC 28214; test: In vitro antifungal MIC, microtiter broth dilution; conditions: Aspergillus fumigatus, ATCC28214, 24 h, read-out: MIC values, A. fumigatus, 30°, 24 hours
[4] = system: Erysiphe graminis f. sp. tritici; test: Example D wheat powdery mildew; type: in vivo; conditions: Blumeria graminis, 144 h; 100 PPM; read-out: disease control rating, Ex. D
Summary of the method: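 Wheat seedlings receive a run-off foliar spray of compound suspended in purified water at 100 or 20 ppm. The carrier holds 250 ppm TREM 014 plus acetone amounting to 6% of final volume.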

[5] = system: Cercosporidium personatum; test: Example B Peanut Late Leafspot; type: in vivo; conditions: Nothopassalora personata; 100 PPM; read-out: disease control rating, Ex. B
Summary of the method: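 Each compound is first taken up in acetone, which makes up 6% of the final spray volume. It is then suspended in purified water with 250 ppm TREM 014 at 100 or 20 ppm. Seedlings of peanut are sprayed until run-off.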

Rhizoctonia solani [6] = test: Example K cotton blight; type: in vivo; conditions: 336 h, 5 kg/ha, read-out: disease control rating, Ex. K
Method: […] Seeds and soil were then inoculated with a mixture of sand, cereal and mycelium of the fungus Rhizoctonia solani, causal agent of cotton blight, and incubated in a growth chamber at 30° C. for 14 days. Disease ratings were then made.

Rhizoctonia solani [7] = test: Example F rice sheath blight; type: in vivo; conditions: Rhizoctonia solani, 144 h, 100 PPM; read-out: disease control rating, Ex. F
Summary of the method: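 Rice seedlings receive a run-off spray of compound suspended at 100 or 20 ppm. The carrier is purified water containing 250 ppm of a polyhydric alcohol ester surfactant, with acetone making up 6% of the final volume.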

[8] = system: Candida albicans ATCC 11651; test: In vivo systemic Candida infection in mice, primary assay; design: species or system Candida albicans; CF-1 female mice; conditions: Candida albicans, 150 mg/kg per day, read-out: % Survival
Summary of the method: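 CF-1 female mice (20 g, 10 per group) were infected IV with 0.2 ml of 1×10^7/ml C. albicans ATCC 11651, then given test compound subcutaneously at 50 or 150 mg/kg/day at 1 and 6 h post-infection and once daily for three more days. Survival was followed for 21 days against infected untreated mice; ≥70% protection at 14 days was scored active.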

SMILES	pest or weed control at 100 ppm (Puccinia recondita) [%]	pest or weed control at 100 ppm (Phytophthora infestans) [%]	pest or weed control at 5000 g/ha (Sclerotium rolfsii) [%]	MIC [1] [µg/mL]	pest or weed control at 5000 g/ha [2] [%]	pest or weed control at 100 ppm (Venturia inaequalis) [%]	pest or weed control at 5000 g/ha (Pythium aphanadermatum) [%]	pest or weed control at 100 ppm (Botrytis cinerea) [%]	pest or weed control at 100 ppm (Plasmorpara viticola) [%]	pest or weed control at 100 ppm (Pyricularia oryzae) [%]	MIC [3] [µg/mL]	pest or weed control at 100 ppm [4] [%]	pest or weed control at 100 ppm [5] [%]	pest or weed control at 5000 g/ha (Rhizoctonia solani [6]) [%]	pest or weed control at 100 ppm (Rhizoctonia solani [7]) [%]	responders at 150 mg/kg ([8]; ATCC11651, 168 h, day 7) [%]	responders at 150 mg/kg ([8]; ATCC11651, 336 h, day 14) [%]	responders at 150 mg/kg ([8]; ATCC11651, 504 h, day 21) [%]
C=C(c1ccc(F)cc1)C(O)(Cn1ncnc1SCC#N)c1ccccc1F (stereo not shown) [Example 1451]	93	0	0	> 100	0	86	0	48	79	2	> 100	77	84	0				
C=C(CN(C)C)C(O)(Cn1cncn1)c1ccc(-c2ccccc2)cc1 (stereo not shown) [Example 456]	96	9	0		0	82	0	58	0	98		53	0	0	0			
C=C(c1ccccc1)C(O)(Cn1cncn1)c1ccc(F)c(Cl)c1 (stereo not shown) [Example 605]	100	0	0	0.2 (≈ 0.582 µM)	0	70	0	32	0	0	100 (≈ 291 µM)	81	99	0				
C=C(CO)C(O)(Cn1cncn1)c1ccc(Cl)cc1Cl (stereo not shown) [Example 449]	30	0	0	≤ 0.4	0	71	0	24	51	76		0	0	0	13			
C=C(c1cc(Cl)cc(Cl)c1)C(O)(Cn1cncn1)c1ccc(F)cc1F (stereo not shown) [Example 815]	97	0	0	0.03 (≈ 0.0757 µM)	0	40	0	0	65	2	> 100	62	98	0				
N#CCS(=O)(=O)c1ncnn1CC(O)(c1ccccc1F)C1(c2ccc(F)cc2)CO1 (stereo not shown) [Example 1469]	100	24	0		70	68	0	81	89	2		77	84	80				
C=C(CO)C(O)(Cn1cncn1)c1ccc(-c2ccccc2)cc1 (stereo not shown) [Example 452]	30	0	0	> 100	0	36	0	54	0	0		46	0	0	67			
C=C(c1ccccc1)C(O)(Cn1cncn1)c1ccccc1F (stereo not shown) [Example 594]	100	0	50	0.8 (≈ 2.59 µM)	100	86	0	93	79	2	0.8 (≈ 2.59 µM)	77	100	60		70	10	0
C=C(CN(C)C)C(O)(Cn1cncn1)c1ccc(Br)cc1 (stereo not shown) [Example 455]	43	0	0	25 (≈ 71.2 µM)	0	64	0	0	0	0		12	65	0	0			
C=C(c1ccccc1)C(O)(Cn1cncn1)c1cc(Cl)cc(Cl)c1 (stereo not shown) [Example 603]	95	0	0	0.1 (≈ 0.278 µM)	0	44	0	91	0	0	> 100	69	97	0		10	0	0
C=C(CO)C(O)(Cn1cncn1)c1ccc(Br)cc1 (stereo not shown) [Example 451]	0	0	0	12.5 (≈ 38.6 µM)	0	16	0	72	0	0		0	100	0	0			
